From US10406207B2, “Peptide conjugates of GLP-1 receptor agonists and gastrin and their use” (priority 2010, dated 2019)
Like-named read-outs stand apart in the source and are kept apart here. Numbered stars: 1 amine (or outer) side, 2 acyl side, 3 side chain; on linkers, the order of the positions; unused ones are H or OH. Square brackets hold non-standard residues; d marks the D form. Side chains are listed from the residue outwards. Peptide text beside a SMILES is read from it. * marks the point of attachment. γGlu = O=C(O)[C@H](CCC(=O)[*:2])N[*:1]; Palmitoyl = CCCCCCCCCCCCCCCC(=O)*; Orn = NCCC[C@H](N)C(=O)O; AEEA = NCCOCCOCC(=O)O

Columns and labels:
human GLP-1 R = molecular target: T1, human GLP-1 R (Homo sapiens, UniProt P43220); experiment: Human GLP-1 receptor efficacy assay (cAMP induction, FlashPlate); type: cell-based; conditions: read-out: hGLP-1 R EC50
T1 construct: expressed in transfected cells
Method: On the day of analysis, growth medium was removed and the cells were washed once with 200 μl Tyrode buffer [Tyrode's Salts (9.6 g/l), 10 mM HEPES, pH 7.4]. […] The reaction was stopped by addition of 25 μl 0.5 M HCl and incubated on ice for 60 min.

human CCK-B R = molecular target: T2, human CCK-B R (Homo sapiens, UniProt P32239); experiment: Human CCK-B receptor efficacy assay (AlphaScreen SureFire p-ERK); type: cell-based; conditions: read-out: hCCK-B R EC50
T2 construct: expressed in transfected cells
T2 sequence (P32239 1-447): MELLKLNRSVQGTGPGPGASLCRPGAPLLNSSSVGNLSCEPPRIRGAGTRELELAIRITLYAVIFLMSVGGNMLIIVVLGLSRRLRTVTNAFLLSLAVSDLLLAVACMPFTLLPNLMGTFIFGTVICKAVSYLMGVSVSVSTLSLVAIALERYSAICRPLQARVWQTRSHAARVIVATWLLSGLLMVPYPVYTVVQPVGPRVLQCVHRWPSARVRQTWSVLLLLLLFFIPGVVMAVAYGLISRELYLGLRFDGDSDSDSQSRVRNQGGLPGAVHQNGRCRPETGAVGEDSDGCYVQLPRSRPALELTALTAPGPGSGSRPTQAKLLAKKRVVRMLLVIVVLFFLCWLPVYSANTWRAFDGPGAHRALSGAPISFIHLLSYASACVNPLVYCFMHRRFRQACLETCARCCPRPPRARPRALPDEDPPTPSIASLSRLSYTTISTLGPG
Method: CCK-B Receptor (CCK-B R) Efficacy Assay:
In vitro effects of peptide conjugates of the invention were estimated by measuring p-ERK (using the AlphaScreen™ SureFire p-ERK assay) in HEK293 cells stably expressing the human and mouse CCK-B R (high-affinity Gastrin receptor), respectively. The Gastrin receptor efficacy assays (AlphaScreen™ SureFire p-ERK assay) were performed as follows:
The CCK-B R expressing cells in question were seeded at 20,000 cells/well in 100 μl growth medium [DMEM, 10% FCS, Penicillin (100 IU/ml), Streptomycin (100 μg/ml)] in a 96-well plate coated with poly-D-lysine. The cells were incubated in an incubator (37° C., 5% 002) for two days.
The growth medium was changed to 80 μl of serum-free medium [DMEM, Penicillin (100 IU/ml), Streptomycin (100 μg/ml)] per well, and incubation of the cells was continued for 19 hours in the incubator (37° C., 5% CO2).
After 19 hours, 20 μl of serum-free medium containing one of 5 different concentrations of peptide conjugate was added (performed in triplicate for each concentration), and the cells were incubated for 5 min. at room temperature. • 2. The stimulation medium was discarded by quickly turning the plate upside down, and 60 μl 1× lysis buffer (from the SureFire assay kit) was added per well. • 3. The plate was shaken on a plate-shaker for 5 min and then placed on ice. • 4. SureFire P-ERK assay: 4 μl of each supernatant was transferred to a 384 well proxiplate (Perkin Elmer). • 5. 4 μl of each of the two control lysates (unstimulated and stimulated) were added to the proxiplate in duplicate. • 6. […] 7 μl of the latter reaction buffer+activation buffer+beads per well were added in the proxiplate, the mix being resuspended carefully before addition to the wells. • 7. The plate was incubated for 2 hours in a dark box in a 22° C. incubator. • 8. The plate was analyzed on an Envision™ light-emission plate reader (Perkin-Elmer) using the appropriate reading program (Perkin-Elmer).

T1 sequence (P43220 24-463): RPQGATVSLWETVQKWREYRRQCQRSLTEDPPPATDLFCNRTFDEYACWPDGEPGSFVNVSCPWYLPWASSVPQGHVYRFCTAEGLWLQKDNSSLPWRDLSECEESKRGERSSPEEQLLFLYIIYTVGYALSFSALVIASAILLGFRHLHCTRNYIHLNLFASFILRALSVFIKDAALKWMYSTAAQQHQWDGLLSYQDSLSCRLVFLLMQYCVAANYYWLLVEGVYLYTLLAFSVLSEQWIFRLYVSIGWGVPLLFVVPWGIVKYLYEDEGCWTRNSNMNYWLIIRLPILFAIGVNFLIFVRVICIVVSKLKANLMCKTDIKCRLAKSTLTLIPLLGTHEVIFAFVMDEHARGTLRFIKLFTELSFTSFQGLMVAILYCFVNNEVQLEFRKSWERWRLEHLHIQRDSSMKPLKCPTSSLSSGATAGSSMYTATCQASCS

| SMILES | EC50 (human GLP-1 R; Table 2) [nM] | EC50 (human CCK-B R; Table 2) [nM] | EC50 (human GLP-1 R; Table 3) [nM] | EC50 (human CCK-B R; Table 3) [nM] |
| --- | --- | --- | --- | --- |
| CCCCCCCCCCCCCCCC(=O)N[C@@H](CCC(=O)NCCCC[C@H](NC(=O)CNC(=O)[C@H](CCCNC(=N)N)NC(=O)[C@@H](NC(=O)[C@H](CC(C)C)NC(=O)[C@H](Cc1c[nH]c2ccccc12)NC(=O)[C@H](C)NC(=O)[C@@H](NC(=O)[C@H](Cc1ccccc1)NC(=O)[C@H](CCC(=O)O)NC(=O)[C@H](CCCNC(=N)N)NC(=O)[C@H](C)NC(=O)[C@H](C)NC(=O)[C@H](CCC(N)=O)NC(=O)CNC(=O)[C@H](CCC(=O)O)NC(=O)[C@H](CC(C)C)NC(=O)[C@H](Cc1ccc(O)cc1)NC(=O)[C@H](CO)NC(=O)[C@H](CO)NC(=O)[C@@H](NC(=O)[C@H](CC(=O)O)NC(=O)[C@H](CO)NC(=O)[C@@H](NC(=O)[C@H](Cc1ccccc1)NC(=O)[C@@H](NC(=O)CNC(=O)[C@H](CCC(=O)O)NC(=O)[C@H](C)NC(=O)[C@@H](N)Cc1c[nH]cn1)[C@@H](C)O)[C@@H](C)O)C(C)C)[C@@H](C)CC)C(C)C)C(=O)NCC(=O)NCCOCCOCC(=O)NCCOCCOCC(=O)N[C@@H](Cc1ccc(O)cc1)C(=O)NCC(=O)N[C@@H](Cc1c[nH]c2ccccc12)C(=O)N[C@@H](CC(C)C)C(=O)N[C@@H](CC(=O)O)C(=O)N[C@@H](Cc1ccccc1)C(N)=O)C(=O)O [Compound 108, [Arg26,34,Lys(Hexadecanoyl-isoGlu)36]GLP-1(7-37)-Peg3-Peg3-[Leu4]Gastrin6] (H-HAEGTFTSDVSSYLEGQAAREFIAWLVRGK([γGlu-Palmitoyl])G[AEEA][AEEA]YGWLDF-NH2) |  |  | 0.11 | 78 |
| CCCCCCCCCCCCCCCC(=O)N[C@@H](CCC(=O)NCCCC[C@H](NC(=O)CNC(=O)[C@H](CCCNC(=N)N)NC(=O)[C@@H](NC(=O)[C@H](CC(C)C)NC(=O)[C@H](Cc1c[nH]c2ccccc12)NC(=O)[C@H](C)NC(=O)[C@@H](NC(=O)[C@H](Cc1ccccc1)NC(=O)[C@H](CCC(=O)O)NC(=O)[C@H](CCCNC(=N)N)NC(=O)[C@H](C)NC(=O)[C@H](C)NC(=O)[C@H](CCC(N)=O)NC(=O)CNC(=O)[C@H](CCC(=O)O)NC(=O)[C@H](CC(C)C)NC(=O)[C@H](Cc1ccc(O)cc1)NC(=O)[C@H](CO)NC(=O)[C@H](CO)NC(=O)[C@@H](NC(=O)[C@H](CC(=O)O)NC(=O)[C@H](CO)NC(=O)[C@@H](NC(=O)[C@H](Cc1ccccc1)NC(=O)[C@@H](NC(=O)CNC(=O)[C@H](CCC(=O)O)NC(=O)CNC(=O)[C@@H](N)Cc1c[nH]cn1)[C@@H](C)O)[C@@H](C)O)C(C)C)[C@@H](C)CC)C(C)C)C(=O)NCC(=O)NCCOCCOCC(=O)NCCOCCOCC(=O)N[C@@H](Cc1ccc(O)cc1)C(=O)NCC(=O)N[C@@H](Cc1c[nH]c2ccccc12)C(=O)N[C@@H](CC(C)C)C(=O)N[C@@H](CC(=O)O)C(=O)N[C@@H](Cc1ccccc1)C(N)=O)C(=O)O [Compound 110, [Arg26,34,Gly8,Lys(Hexadecanoyl-isoGlu)36]GLP-1(7-37)-Peg3-Peg3-[Leu4]Gastrin6] (H-HGEGTFTSDVSSYLEGQAAREFIAWLVRGK([γGlu-Palmitoyl])G[AEEA][AEEA]YGWLDF-NH2) |  |  | 0.12 | 29 |
| CCCCCCCCCCCCCCCC(=O)N[C@@H](CCC(=O)NCCCC[C@H](NC(=O)[C@H](C)NC(=O)[C@H](C)NC(=O)[C@H](CCC(N)=O)NC(=O)CNC(=O)[C@H](CCC(=O)O)NC(=O)[C@H](CC(C)C)NC(=O)[C@H](Cc1ccc(O)cc1)NC(=O)[C@H](CO)NC(=O)[C@H](CO)NC(=O)[C@@H](NC(=O)[C@H](CC(=O)O)NC(=O)[C@H](CO)NC(=O)[C@@H](NC(=O)[C@H](Cc1ccccc1)NC(=O)[C@@H](NC(=O)CNC(=O)[C@H](CCC(=O)O)NC(=O)C(C)(C)NC(=O)[C@@H](N)Cc1c[nH]cn1)[C@@H](C)O)[C@@H](C)O)C(C)C)C(=O)N[C@@H](CCC(=O)O)C(=O)N[C@@H](Cc1ccccc1)C(=O)N[C@H](C(=O)N[C@@H](C)C(=O)N[C@@H](Cc1c[nH]c2ccccc12)C(=O)N[C@@H](CC(C)C)C(=O)N[C@H](C(=O)N[C@@H](CCCNC(=N)N)C(=O)NCC(=O)N[C@@H](CCCNC(=N)N)C(=O)NCC(=O)NCCOCCOCC(=O)NCCOCCOCC(=O)N[C@@H](Cc1ccc(O)cc1)C(=O)NCC(=O)N[C@@H](Cc1c[nH]c2ccccc12)C(=O)N[C@@H](CC(C)C)C(=O)N[C@@H](CC(=O)O)C(=O)N[C@@H](Cc1ccccc1)C(N)=O)C(C)C)[C@@H](C)CC)C(=O)O [Compound 111, [Aib8,Arg34,Lys(Hexadecanoyl-isoGlu)26]GLP-1(7-37)-Peg3-Peg3-[Leu4]Gastrin6] |  |  | 0.088 | 59 |

Other lines, results leading:

| EC50 (human GLP-1 R; Table 2) [nM] | EC50 (human CCK-B R; Table 2) [nM] | EC50 (human GLP-1 R; Table 3) [nM] | EC50 (human CCK-B R; Table 3) [nM] | SMILES |
| --- | --- | --- | --- | --- |
| 0.12 | 100 |  |  | CC[C@H](C)[C@H](NC(=O)[C@H](Cc1ccccc1)NC(=O)[C@H](CC(C)C)NC(=O)[C@H](CCCNC(=N)N)NC(=O)[C@@H](NC(=O)[C@H](C)NC(=O)[C@H](CCC(=O)O)NC(=O)[C@H](CCC(=O)O)NC(=O)[C@H](CCC(=O)O)NC(=O)[C@H](CC(C)C)NC(=O)[C@H](Cc1ccc(O)cc1)NC(=O)[C@H](CCCCN)NC(=O)[C@H](CO)NC(=O)[C@H](CC(C)C)NC(=O)[C@H](CCC(=O)O)NC(=O)[C@H](CO)NC(=O)[C@@H](NC(=O)[C@H](Cc1ccccc1)NC(=O)[C@@H](NC(=O)CNC(=O)[C@H](CCC(=O)O)NC(=O)CNC(=O)[C@@H](N)Cc1c[nH]cn1)[C@@H](C)O)[C@@H](C)O)C(C)C)C(=O)N[C@@H](CCC(=O)O)C(=O)N[C@@H](Cc1ccccc1)C(=O)N[C@@H](CC(C)C)C(=O)N[C@@H](CCCCN)C(=O)N[C@@H](CCCN)C(=O)NCCOCCOCC(=O)N[C@@H](Cc1ccc(O)cc1)C(=O)NCC(=O)N[C@@H](Cc1c[nH]c2ccccc12)C(=O)N[C@@H](CC(C)C)C(=O)N[C@@H](CC(=O)O)C(=O)N[C@@H](Cc1ccccc1)C(N)=O [Compound 103, [Glu9,Leu14,Phe25,Tyr13]Exendin-4(1-27)-Orn-Peg3-[Leu4]Gastrin6] (H-HGEGTFTSELSKYLEEEAVRLFIEFLK[Orn][AEEA]YGWLDF-NH2) |
| 0.087 | 8.8 |  |  | CC[C@H](C)[C@H](NC(=O)[C@H](Cc1ccccc1)NC(=O)[C@H](CC(C)C)NC(=O)[C@H](CCCNC(=N)N)NC(=O)[C@@H](NC(=O)[C@H](C)NC(=O)[C@H](CCC(=O)O)NC(=O)[C@H](CCC(=O)O)NC(=O)[C@H](CCC(=O)O)NC(=O)[C@H](CC(C)C)NC(=O)[C@H](Cc1ccc(O)cc1)NC(=O)[C@H](CCCCN)NC(=O)[C@H](CO)NC(=O)[C@H](CC(C)C)NC(=O)[C@H](CCC(=O)O)NC(=O)[C@H](CO)NC(=O)[C@@H](NC(=O)[C@H](Cc1ccccc1)NC(=O)[C@@H](NC(=O)CNC(=O)[C@H](CCC(=O)O)NC(=O)CNC(=O)[C@@H](N)Cc1c[nH]cn1)[C@@H](C)O)[C@@H](C)O)C(C)C)C(=O)N[C@@H](CCC(=O)O)C(=O)N[C@@H](Cc1ccccc1)C(=O)N[C@@H](CC(C)C)C(=O)N[C@@H](CCCCN)C(=O)NCCOCCOCC(=O)N[C@@H](CCCN)C(=O)N[C@@H](Cc1ccc(O)cc1)C(=O)NCC(=O)N[C@@H](Cc1c[nH]c2ccccc12)C(=O)N[C@@H](CC(C)C)C(=O)N[C@@H](CC(=O)O)C(=O)N[C@@H](Cc1ccccc1)C(N)=O [Compound 104, [Glu9,Leu14,Phe25,Tyr13]Exendin-4(1-27)-Peg3-Orn-[Leu4]Gastrin6] (H-HGEGTFTSELSKYLEEEAVRLFIEFLK[AEEA][Orn]YGWLDF-NH2) |
| 0.11 | 16 |  |  | CC[C@H](C)[C@H](NC(=O)[C@H](Cc1ccccc1)NC(=O)[C@H](CC(C)C)NC(=O)[C@H](CCCNC(=N)N)NC(=O)[C@@H](NC(=O)[C@H](C)NC(=O)[C@H](CCC(=O)O)NC(=O)[C@H](CCC(=O)O)NC(=O)[C@H](CCC(=O)O)NC(=O)[C@H](CC(C)C)NC(=O)[C@H](Cc1ccc(O)cc1)NC(=O)[C@H](CCCCN)NC(=O)[C@H](CO)NC(=O)[C@H](CC(C)C)NC(=O)[C@H](CCC(=O)O)NC(=O)[C@H](CO)NC(=O)[C@@H](NC(=O)[C@H](Cc1ccccc1)NC(=O)[C@@H](NC(=O)CNC(=O)[C@H](CCC(=O)O)NC(=O)CNC(=O)[C@@H](N)Cc1c[nH]cn1)[C@@H](C)O)[C@@H](C)O)C(C)C)C(=O)N[C@@H](CCC(=O)O)C(=O)N[C@@H](Cc1ccccc1)C(=O)N[C@@H](CC(C)C)C(=O)N[C@@H](CCCCN)C(=O)N[C@@H](CCCN)C(=O)N[C@@H](CCCN)C(=O)N[C@@H](Cc1ccc(O)cc1)C(=O)NCC(=O)N[C@@H](Cc1c[nH]c2ccccc12)C(=O)N[C@@H](CC(C)C)C(=O)N[C@@H](CC(=O)O)C(=O)N[C@@H](Cc1ccccc1)C(N)=O [Compound 105, [Glu9,Leu14,Phe25,Tyr13]Exendin-4(1-27)-Orn-Orn-[Leu4]Gastrin6] (H-HGEGTFTSELSKYLEEEAVRLFIEFLK[Orn][Orn]YGWLDF-NH2) |
